Patent publication US11787850B2, “Peptidic TGF-beta antagonists” (priority 2015, dated 2023)

System: TGF-β-induced epithelial-mesenchymal transition (EMT) response in squamous cell carcinoma (A431) cells
Experiment: Immunoblot of EMT markers in A431 cells
Format: cell-based
Procedure: (FIG. 26A) Immunoblot analysis was carried out using cell lysates of A431 cells following incubation with TGF-β, P16, or scrambled control (P16.2) as indicated to determine expression of proteins involved in the EMT response. (FIG. 26B) Densitometry analysis was subsequently performed using the developed immunoblot to illustrate the relative expression of each protein as a function as P16 concentration as indicated.
A431 cancer cells treated with 10 nM of P16.2 (negative peptide control), P12, P16 or PA in the absence or presence of 100 pM TGF-b, followed by 24 hrs of incubation. Cells lysates were analyzed by Western blot for the expression of Fibronectin (mesenchymal marker), Snail and Twist (EMT markers). Actin expression was used as loading control.

ETWIWLDTNMGSRIYQ [Peptide P16]
inhibition of TGF-b induced EMT response (Fibronectin, Snail, Twist) (10 nM peptide, 100 pM TGF-b, 24 hrs (FIG. 33)): inhibit
inhibition of TGF-β-induced EMT response in A431 cells, dose-dependent (immunoblot and densitometry, P16 concentrations as indicated (FIG. 26)): inhibit
